In test [1] the target is Carbonic anhydrase 5B, mitochondrial (Homo sapiens, UniProt Q9Y2D0). Kind of test: Inhibition of human recombinant CA5B by CO2 hydration assay.
The target of test [2] is Carbonic anhydrase 6 (Homo sapiens, UniProt P23280). Nature of the test: Inhibition of human recombinant CA6 by CO2 hydration assay.
Test [3] addresses Carbonic anhydrase 7 (Homo sapiens, UniProt P43166). Kind of test: Inhibition of human recombinant CA7 by CO2 hydration assay.
Test [4] concerns the target Carbonic anhydrase 12 (Homo sapiens, UniProt O43570). Kind of test: Inhibition of human recombinant CA12 by CO2 hydration assay.
Test [5] deals with Carbonic anhydrase 13 (Mus musculus, UniProt Q9D6N1). Kind of test: Inhibition of mouse recombinant CA13 by CO2 hydration assay.
The target in test [6] is Carbonic anhydrase 14 (Homo sapiens, UniProt Q9ULX7). Kind of test: Inhibition of human recombinant CA14 by CO2 hydration assay.

pKi: −log10 of the molar value.

Carbonic anhydrase 5B, mitochondrial, sequence (Q9Y2D0 whole entry): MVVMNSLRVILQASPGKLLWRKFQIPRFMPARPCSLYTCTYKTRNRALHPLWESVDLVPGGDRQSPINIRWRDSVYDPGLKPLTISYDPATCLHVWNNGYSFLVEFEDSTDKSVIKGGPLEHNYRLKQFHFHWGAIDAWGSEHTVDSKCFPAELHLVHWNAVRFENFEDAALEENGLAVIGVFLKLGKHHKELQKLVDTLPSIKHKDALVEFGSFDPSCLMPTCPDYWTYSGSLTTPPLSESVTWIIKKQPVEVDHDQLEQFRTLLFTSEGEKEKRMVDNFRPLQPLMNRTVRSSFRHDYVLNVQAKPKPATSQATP
Carbonic anhydrase 14, sequence (Q9ULX7 whole entry): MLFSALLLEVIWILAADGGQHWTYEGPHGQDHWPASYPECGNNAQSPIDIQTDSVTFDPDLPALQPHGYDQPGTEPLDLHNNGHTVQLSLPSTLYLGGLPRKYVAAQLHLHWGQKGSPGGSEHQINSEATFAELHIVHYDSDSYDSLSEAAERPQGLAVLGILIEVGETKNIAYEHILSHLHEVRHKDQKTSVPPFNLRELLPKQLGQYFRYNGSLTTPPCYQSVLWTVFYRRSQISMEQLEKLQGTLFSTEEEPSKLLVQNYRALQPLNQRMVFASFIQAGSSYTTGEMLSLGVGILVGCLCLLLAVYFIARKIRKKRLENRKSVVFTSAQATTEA
Carbonic anhydrase 7, sequence (P43166 whole entry): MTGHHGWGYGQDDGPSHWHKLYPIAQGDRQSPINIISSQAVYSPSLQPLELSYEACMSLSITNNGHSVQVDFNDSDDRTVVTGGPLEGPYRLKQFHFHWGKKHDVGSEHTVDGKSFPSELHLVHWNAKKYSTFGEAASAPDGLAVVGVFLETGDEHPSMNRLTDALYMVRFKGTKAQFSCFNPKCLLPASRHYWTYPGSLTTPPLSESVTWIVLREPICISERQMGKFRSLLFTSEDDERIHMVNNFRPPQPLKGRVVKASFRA
Carbonic anhydrase 6, sequence (P23280 whole entry): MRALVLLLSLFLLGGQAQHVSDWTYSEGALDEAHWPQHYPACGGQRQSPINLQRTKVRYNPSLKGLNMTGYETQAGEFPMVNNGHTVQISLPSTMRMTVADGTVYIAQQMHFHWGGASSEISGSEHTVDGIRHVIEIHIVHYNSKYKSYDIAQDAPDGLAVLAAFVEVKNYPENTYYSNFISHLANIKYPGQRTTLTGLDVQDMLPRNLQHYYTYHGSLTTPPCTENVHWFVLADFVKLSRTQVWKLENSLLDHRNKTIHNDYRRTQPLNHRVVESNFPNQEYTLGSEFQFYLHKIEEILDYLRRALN
Carbonic anhydrase 13, sequence (Q9D6N1 whole entry): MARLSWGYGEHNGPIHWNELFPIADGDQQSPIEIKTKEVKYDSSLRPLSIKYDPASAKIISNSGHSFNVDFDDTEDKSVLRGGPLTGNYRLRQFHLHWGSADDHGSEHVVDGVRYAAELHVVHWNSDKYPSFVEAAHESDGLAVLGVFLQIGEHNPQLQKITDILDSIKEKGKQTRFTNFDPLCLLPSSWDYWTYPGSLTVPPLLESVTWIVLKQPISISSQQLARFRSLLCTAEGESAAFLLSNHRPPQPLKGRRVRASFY
Carbonic anhydrase 12, sequence (O43570 whole entry): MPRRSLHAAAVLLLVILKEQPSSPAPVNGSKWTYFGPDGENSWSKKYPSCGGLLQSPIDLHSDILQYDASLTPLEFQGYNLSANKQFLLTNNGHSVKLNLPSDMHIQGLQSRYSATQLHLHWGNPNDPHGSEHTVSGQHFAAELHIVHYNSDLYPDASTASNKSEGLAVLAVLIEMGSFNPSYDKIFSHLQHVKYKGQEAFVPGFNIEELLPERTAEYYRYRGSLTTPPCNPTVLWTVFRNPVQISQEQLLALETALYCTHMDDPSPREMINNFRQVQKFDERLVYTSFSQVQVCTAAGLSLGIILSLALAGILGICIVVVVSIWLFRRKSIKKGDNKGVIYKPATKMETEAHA

`O=C(O)P(=O)(O)O` [FOSCARNET SODIUM]: the pKi is 1.93 in test [1]; 2.74 in test [2]; 3.25 in test [3]; 2.89 in test [4]; 3.06 in test [5]; 2.44 in test [6].

These data come from ChEMBL document CHEMBL1147203, “Phosph(on)ate as a zinc-binding group in metalloenzyme inhibitors: X-ray crystal structure of the antiviral drug foscarnet complexed to human carbonic anhydrase I” (Bioorg Med Chem Lett, 2007).
